Reference: US20020187538A1, “cDNA clone of (+)- delta-cadinene-8-hydroxylase gene from cotton plants” (priority 2001, published 2002)

Test system: CYP706B1
Assay: (+)-d-cadinene hydroxylase activity assay, inhibitors and cofactor
Format: biochemical, Gossypium arboreum
Conditions: for sensitivity to inhibition: qualitative statement, taken as indication of a cytochrome P450
Description: The yeast Saccharomyces cerevisiae strain W(R), which overexpresses the yeast cytochrome P450 reductase when grow on galactose, and the expression vector pYeDP60 were provided by D. Pompon (Pompon et al (1996) Methods Enzymol. 272, 51-64). The cDNA of CYP706B1 was modified by PCR with a 5′-terminal primer 5ç-[…] (sense), in which a Kpn I site was introduced, and a 3′-terminal primer 5ç-[…] (reverse), in which a Sac I site was introduced. PCR was conducted on plasmid DNA by using Pyrobest™ DNA polymerase (TaKaRa). After digestion with the restriction enzymes, the fragment was inserted into pYeDP60. Plasmid DNA was introduced into yeast cells by a LiAc method, transformed yeast cells were then selected, cultured, and induced, and microsomes were prepared following a high density procedure (Pompon et al (1996) Methods Enzymol. 272, 51-64).
The (+)-d-cadinene hydroxylase activity assay was based on a published protocol for monoterpene P450 hydroxylases (Mihaliak et al. (1993) Methods Plant Biochem. 9, 261-279). The radioactive assay was conducted in […] of potassium phosphate buffer (50 mM, pH 7.4) containing 1 mM EDTA (pH 8.0), 0.4 M sucrose, 2 mM DTT, 0.1% BSA, 1 mM NADPH, 5 mM FAD, 5 mM FMN, 4 mM glucose-6-phosphate, 1 unit of glucose-6-phosphate dehydrogenase, […] ^3H-(+)-d-cadinene (32 mCi/mmol) and yeast microsomes (100^˜[…] protein). The reaction was started by adding the microsomes, incubated at 30° C. for 1 hr, and stopped by chilling on ice. The reaction mixture was extracted three times with […] hexane:ethyl acetate (1:1), the extract was filtered through a 0.2 g, 100^˜200 mesh silica gel column in a pasteur pipet, eluted with 1.5 mL hexane:ethyl acetate (1:1), and concentrated to ca […] with an argon stream. The entire sample was subjected to reversed phase HPLC on C18 silica (250×4.6 mm, […] particle diameter) with a gradient of 40:60 to 100:0 acetonitrile/water (v/v) over 60 min followed by 10 min of 100% acetonitrile, flow rate 1 mL/min. Tritium was detected by an on-line liquid scintillation counter (b-RAM, IN/US Systems, Inc., Tampa, Fla.). […]

Clc1ccc(COC(Cn2ccnc2)c2ccc(Cl)cc2Cl)c(Cl)c1 (stereo not drawn) [miconazole]
sensitivity to inhibition: sensitivity to inhibition

[C-]#[O+] [CO, carbon monoxide]
sensitivity to inhibition: sensitivity to inhibition | inhibition of the hydroxylase activity (reaction mixture treated with a slow stream of CO for about 2 min, yeast microsomes containing CYP706B1): 70%
